Patent US20040067932A1 (priority 2002, published 2004)
In brackets after ≈: the same amount, converted by molar mass. Like-named read-outs stand apart in the source and are kept apart here. Each block holds one compound with its values, some of them ahead of it.

Experiments:
[1] = tested on: human melanoma A375 cell line; assay: MTT growth inhibitory assay, A375; format: cell-based; conditions: Homo sapiens
[2] = tested on: human colon carcinoma HT29 cell line; assay: MTT growth inhibitory assay, HT29; format: cell-based; conditions: for IC50: HT-29
[3] = tested on: human pancreatic cancer Panc-1; assay: MTT growth inhibitory assay, Panc-1; format: cell-based
[4] = tested on: human lung carcinoma SKMES; assay: MTT growth inhibitory assay, SKMES; format: cell-based
[5] = tested on: A375 cells; assay: Flow cytometry (PI) G2/M accumulation and sub-G1 apoptosis, A375; format: cell-based, human; conditions: Homo sapiens, A-375, read-out: SEC50 (dose inducing 50% of the enhancing activity to vindesine)
Protocol: A375 and NCTC2544 adherent cells were trypsinized, mixed with floating cells, washed with PBS and permeabilised in 70% (vol/vol) ethanol/PBS solution at 4° C. for at least 24 hours. Jurkat, HeL023 and PBMC cells were centrifuged for 10 minutes at 1000×g. The cell pellet was then resuspended and permeabilised in 70% (vol/vol) ethanol/PBS solution at 4° C. for at least 24 hours. The cells were washed with PBS and the DNA was stained with a PBS solution, containing 20 μg/ml of propidium iodide and 100 μg/ml of RNAse, at room temperature for 30 minutes. Cells were analysed by FACScan (Becton-Dickinson) and the content of DNA was evaluated by the Cell-LISYS program (Becton-Dickinson). Cell distribution among cell cycle phases and apoptotic cells was evaluated as previously described (Secchiero et al., 2001). Briefly, the cell cycle distribution is shown as the percentage of cells containing 2n (G1 phase), 4n (G2 and M phases), 4n>x>2n. DNA amount (S phase) judged by propidium iodide staining. The apoptotic population is the percentage of cells with DNA content lower than 2n.
Cell proliferation and apoptosis are quantified by flow cytometer analysis after propidium-iodide (PI) DNA staining.

[6] = target: T1, P-gp drug efflux activity in HeL023 cells (Homo sapiens, UniProt P08183); assay: Rhodamine 123 efflux assay, HeL023 cells; format: cell-based; conditions: for inhibition of P-gp activity (in words): Rh123 efflux, concentrations of Table 11 (MRE3008F20 10 μM); for % of Rh123 negative cells: 10 μM, cells expressing P-gp activity
T1 construct: nearly all (100±1%) the cells expressing high level of functional P-gp; endogenous in cells; host or cells: HeL023 human erythroleukemia cells
T1 sequence (P08183 whole entry): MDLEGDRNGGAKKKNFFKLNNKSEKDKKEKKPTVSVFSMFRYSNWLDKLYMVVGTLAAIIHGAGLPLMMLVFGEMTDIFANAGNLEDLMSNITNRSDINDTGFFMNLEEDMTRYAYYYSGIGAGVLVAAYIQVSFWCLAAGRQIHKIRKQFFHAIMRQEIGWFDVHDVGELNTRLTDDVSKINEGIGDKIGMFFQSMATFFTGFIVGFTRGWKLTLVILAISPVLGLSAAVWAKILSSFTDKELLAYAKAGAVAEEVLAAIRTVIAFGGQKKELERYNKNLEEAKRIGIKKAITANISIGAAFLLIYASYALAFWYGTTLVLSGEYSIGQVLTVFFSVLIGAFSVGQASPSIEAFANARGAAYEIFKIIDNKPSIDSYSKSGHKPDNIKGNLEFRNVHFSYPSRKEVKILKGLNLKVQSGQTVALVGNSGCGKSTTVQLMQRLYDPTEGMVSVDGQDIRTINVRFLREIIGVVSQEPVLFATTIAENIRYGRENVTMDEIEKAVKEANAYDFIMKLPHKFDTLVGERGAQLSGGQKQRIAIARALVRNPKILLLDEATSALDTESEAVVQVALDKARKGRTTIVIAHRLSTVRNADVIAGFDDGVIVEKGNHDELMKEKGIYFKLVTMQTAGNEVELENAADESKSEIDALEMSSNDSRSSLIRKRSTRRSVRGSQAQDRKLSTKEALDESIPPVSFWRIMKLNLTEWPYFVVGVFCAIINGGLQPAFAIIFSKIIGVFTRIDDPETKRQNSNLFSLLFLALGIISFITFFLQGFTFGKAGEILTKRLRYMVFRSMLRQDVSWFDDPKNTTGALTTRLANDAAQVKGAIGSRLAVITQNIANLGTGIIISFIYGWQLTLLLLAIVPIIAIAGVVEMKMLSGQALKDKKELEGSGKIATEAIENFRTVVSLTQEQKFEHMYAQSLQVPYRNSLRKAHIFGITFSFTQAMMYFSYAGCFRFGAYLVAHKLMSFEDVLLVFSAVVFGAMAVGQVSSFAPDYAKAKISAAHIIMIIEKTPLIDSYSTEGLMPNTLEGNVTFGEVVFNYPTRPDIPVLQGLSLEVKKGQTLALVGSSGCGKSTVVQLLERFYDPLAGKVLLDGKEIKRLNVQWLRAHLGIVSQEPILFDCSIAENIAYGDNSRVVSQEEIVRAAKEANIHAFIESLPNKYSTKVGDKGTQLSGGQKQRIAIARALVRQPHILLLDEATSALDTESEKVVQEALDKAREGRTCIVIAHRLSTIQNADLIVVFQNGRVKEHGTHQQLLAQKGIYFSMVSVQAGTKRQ
Protocol: 5×10^5 cells from each subline were loaded with 50 ng/ml of rhodamine 123 for 30 minutes at 37° C. in medium. The cells were washed and resuspended in dye-staining agent free medium for 3 hours at 37° C. to allow rhodamine 123 efflux. The cells were then washed twice and the fluorescence of intracellular rhodamine 123 were analysed with Flow cytometer (residual fluorescence FRES). The fluorescence was compared with loaded cells maintained at 4° C. to prevent drug export (maximal fluorescence FMAX). […] Cells from each subline that were not being exposed to rhodamine 123 were used as negative controls.
Rhodamine 123 (Rh123) retention, a P-gp functional assay, was studied in all cell lines. This assay was performed by incubating cells with Rh123 and determining Rh123 accumulation by measuring its fluorescence. The maximum load of Rh123 (FMAX) was quantified at the end of treatment harvesting the cells and storing them at 4° C. to prevent any active Rh123 efflux . The P-gp drug efflux was allowed incubating Rh123-loaded cells in fresh new medium Rh123-free for 3 hours at 37° C. After this incubation, residual fluorescence (FRES) was measured and compared to FMAX.

[7] = target: T2, human A3 adenosine receptor (Homo sapiens, UniProt P0DMS8); assay: biochemical
T2 sequence (P0DMS8 1-318): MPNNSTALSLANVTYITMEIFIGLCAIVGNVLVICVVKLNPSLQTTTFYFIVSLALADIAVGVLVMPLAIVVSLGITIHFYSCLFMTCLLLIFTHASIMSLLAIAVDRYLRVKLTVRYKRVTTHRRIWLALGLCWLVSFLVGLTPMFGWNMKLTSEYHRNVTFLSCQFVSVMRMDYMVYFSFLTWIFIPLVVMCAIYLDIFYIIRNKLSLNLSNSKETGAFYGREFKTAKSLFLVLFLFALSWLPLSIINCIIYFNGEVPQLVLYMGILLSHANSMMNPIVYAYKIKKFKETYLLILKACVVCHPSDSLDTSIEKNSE

[8] = tested on: A375 melanoma cells; assay: Colony formation assay of A375 cells; format: cell-based, human; conditions: 7 days
Protocol: FIG. 2 illustrates colony formation assay of A375 cells. Cells were treated with different drugs and colonies were counted after 7 days. The values represent the mean ±SEM of four independent experiments. D=DMSO (control); T=paclitaxel, 0.75 ng/ml; M=MRE 3008F20, 10 μM; C=CI-IB-MECA, 10 μM; TM=paclitaxel plus MRE 3008F20; TC=paclitaxel plus CI-IB-MECA treated cells. *P<0.01 TM versus T. Analysis was by ANOVA followed by Dunnett's test.;
Control plates received the same volume of DMSO alone. After 7 days of growth at 37° C. in humidified atmosphere containing 5% CO2, the cells were fixed with absolute methanol for 5′ and stained with 1/10 Giemsa/phosphate-buffered saline (PBS) staining solution for 10 minutes. Staining solution was removed and colonies of greater than 30 cells were scored as survivors. For each treatment, six individual wells were scored.
Colony formation assay experiments were performed on A375 melanoma cells treated with increasing concentration of paclitaxel (0.25-75 ng/ml). A3 stimulation is achieved with the selective agonist CI-IB-MECA while A3 blockade is obtained with the selective antagonist MRE 3008F20. […] (FIG. 2)

[9] = 100 mg/m^2; cited from earlier work
[10] = A-375, Human Melanoma A375, read-out: IC50 growth inhibition, agent used separately
[11] = Human Colon Carcinoma HT29, read-out: IC50 growth inhibition, agent used separately
[12] = Human Pancreatic Cancer Panc-1, read-out: IC50 growth inhibition, agent used separately
[13] = Human Lung Carcinoma SKMES, read-out: IC50 growth inhibition, agent used separately

IC50 [1, 10]: 1.6 ng/mL (≈ 1.97 nM)
IC50 [2, 11]: 1.9 ± 0.4 ng/mL (≈ 2.34 nM)
IC50 [3, 12]: 1.8 ± 0.8 ng/mL (≈ 2.22 nM)
IC50 ([4]; Homo sapiens, SKMES, vinblastine 0.00001-0.005 μg/ml, alone, read-out: IC50 of vinblastine, A3 antagonist none): 1.5 ng/mL (≈ 1.85 nM)
IC50 [4, 13]: 1.9 ± 0.9 ng/mL (≈ 2.34 nM)
Structure (SMILES): CC[C@]1(O)C[C@@H]2CN(CCc3c([nH]c4ccccc34)[C@@](C(=O)OC)(c3cc4c(cc3OC)N(C)[C@H]3[C@@](O)(C(=O)OC)[C@H](OC(C)=O)[C@]5(CC)C=CCN6CC[C@]43[C@@H]65)C2)C1 [vinblastine, reference compound]

Structure (SMILES): CCCn1cc2c(nc(NC(=O)Nc3ccccc3)n3nc(-c4ccco4)nc23)n1 [MRE 3055F20, 5-N-(4-phenylcarbamoyl)amino-8-propyl-2 (2furyl)-pyrazolo[4,3e]-1,2,4triazolo-[1,5c]pyrimidine]
EC50 [5]: 310 ± 30 nM
inhibition of P-gp activity (in words) [6]: strong inhibitors of P-gp activity
Ki [7]: 1.4 ± 0.2 nM

Structure (SMILES): CCCn1cc2c(nc(NC(=O)Nc3ccccc3)n3nc(-c4ccco4)nc23)n1 [drawing 9]
% of Rh123 negative cells [6]: 0.8 ± 0.2%

Structure (SMILES): CCCn1cc2c(nc(NC(=O)Nc3ccccc3)n3nc(-c4ccco4)nc23)n1 [drawing 10]
% of Rh123 negative cells [6]: 1.0 ± 0.2%

Structure (SMILES): CNC(=O)[C@H]1O[C@@H](n2cnc3c(NCc4cccc(I)c4)nc(Cl)nc32)[C@H](O)[C@@H]1O [CI-IB-MECA]
colony formation, % of DMSO control ([8]; 10 μM alone): 130%
colony formation, % of control, combined with paclitaxel ([8]; 10 μM plus paclitaxel 0.75 ng/ml): 85%

Structure (SMILES): Cc1ccc(NC(=O)Nc2nc3nn(C)cc3c3nc(-c4ccco4)nn23)cc1 [MRE 3046F20, 5-N-(4-methylphenyl-carbamoyl)amino-8-methyl-2 (2-furyl)-pyrazolo-[4,3e]-1,2,4-triazolo[1,5-c]pyrimidine]
EC50 [5]: 570 ± 60 nM
inhibition of P-gp activity (in words) [6]: strong inhibitors of P-gp activity
Ki [7]: 3 ± 0.3 nM

IC50 [1, 10]: 0.2 ± 0.07 ng/mL (≈ 0.248 nM)
IC50 [2, 11]: 0.24 ± 0.05 ng/mL (≈ 0.297 nM)
IC50 ([2]; Homo sapiens, HT29, docetaxel 0.00001-0.005 μg/ml, alone, read-out: IC50 of docetaxel, A3 antagonist none): 0.018 ng/mL (≈ 0.0223 nM)
IC50 ([3]; Homo sapiens, Panc-1, docetaxel 0.00001-0.005 μg/ml, alone, read-out: IC50 of docetaxel, A3 antagonist none): 0.68 ng/mL (≈ 0.842 nM)
IC50 [3, 12]: 0.37 ± 0.31 ng/mL (≈ 0.458 nM)
IC50 ([4]; Homo sapiens, SKMES, docetaxel 0.00001-0.005 μg/ml, alone, read-out: IC50 of docetaxel, A3 antagonist none): 0.47 ng/mL (≈ 0.582 nM)
IC50 [4, 13]: 0.84 ± 0.37 ng/mL (≈ 1.04 nM)
Structure (SMILES): CC(=O)O[C@@]12CO[C@@H]1C[C@H](O)[C@@]1(C)C(=O)[C@H](O)C3=C(C)[C@@H](OC(=O)[C@H](O)[C@@H](NC(=O)OC(C)(C)C)c4ccccc4)C[C@@](O)([C@@H](OC(=O)c4ccccc4)[C@H]21)C3(C)C [docetaxel, reference compound]
acute hypersensitivity reaction, % of patients [9]: 13%
severe hypersensitivity reaction, % of patients [9]: 1.2%

Structure (SMILES): O=C1c2c(O)ccc(O)c2C(=O)c2c(NCCNCCO)ccc(NCCNCCO)c21 [mitoxantrone, reference compound]
IC50 ([1]; A-375, A375 cell line, read-out: IC50 value): 3.2 ng/mL (≈ 7.2 nM)
IC50 ([2]; Homo sapiens, HT29 cell line, read-out: IC50 value): 100 ng/mL (≈ 225 nM)
fold HT29 more refractory than A375 ([2]; ratio of IC50 HT29 vs A375): approximately 30 fold
